Measurements published in patent publication US10052330B2, “Substituted pyrido[3,4-b]pyrazines as Syk inhibitors” (HUTCHISON MEDIPHARMA LIMITED, priority 2011, dated 2018).

What was measured:
Syk kinase = Syk kinase (Homo sapiens, UniProt P43405); experiment: Syk kinase enzymatic assay (Kit-Tyr 2 Peptide); assay type: biochemical; details: 8 concentrations, 1 μM down to 0.0003 μM; upper bound of each range is 'less than'; read-out: IC50: Enzymatic Activity (Syk kinase)
RBL-2H3 cells = experiment: IgE-induced Beta-hexosaminidase secretion in RBL-2H3 cells; assay type: cell-based; details: Rattus norvegicus, RBL-2H3, RBL-2H3 cells sensitized with SPE-7, stimulated with DNP-BSA; upper bound of each range is 'less than'; read-out: IC50, IgE-induced Beta-hexosaminidase secretion

Compound | IC50 (Syk kinase) [µM] | IC50 (RBL-2H3 cells) [µM]
c1cnc2c(NC[C@@H]3CCCNC3)nc(-c3ccc(N4CCOCC4)nc3)cc2n1 [Compound 89] | 0.1 to 1 | 0.1 to 1
CN(C)c1ccc(-c2cc3nccnc3c(NC[C@H]3CNCCO3)n2)cc1 [Compound 92] | 0.1 to 1 | 0.1 to 1
COc1ccc(-c2cc3nccnc3c(NC[C@H]3CNCCO3)n2)cc1F [Compound 95] | 0.1 to 1 | 0.1 to 1
c1cnc2c(NC[C@H]3CNCCO3)nc(-c3ccc(N4CCOCC4)nc3)cc2n1 [Compound 97] | 0.1 to 1 | 0.1 to 1
CC(C)Oc1ccc(-c2cc3nccnc3c(NC[C@@H]3CNCCO3)n2)cc1F [Compound 100] | 0.1 to 1 | 0.1 to 1
CN(C)c1ccc(-c2cc3nccnc3c(NC[C@@H]3CNCCO3)n2)cn1 [Compound 102] | 0.001 to 0.1 | 0.001 to 0.1
c1cnc2c(NC[C@@H]3CNCCO3)nc(-c3ccc(N4CCCC4)nc3)cc2n1 [Compound 103] | 0.001 to 0.1 | 0.1 to 1
CN(C)c1ccc(-c2cc3nccnc3c(NC[C@H]3CNCCO3)n2)cn1 [Compound 106] | 0.1 to 1 | 0.1 to 1
NCC1CCN(c2nc(-c3ccc(N4CCOCC4)cc3)cc3nccnc23)CC1 [Compound 108] | 0.1 to 1 | 0.1 to 1
Fc1cc(-c2cc3nccnc3c(N3CCC4(CCCNC4)C3)n2)ccc1N1CCOCC1 (stereo not shown) [Compound 109] | 0.001 to 0.1 | 0.001 to 0.1
Cc1cc(-c2cc3nccnc3c(N3CCC4(CCCNC4)C3)n2)ccc1N1CCOCC1 (stereo not shown) [Compound 110] | 0.001 to 0.1 | 0.001 to 0.1
CN(C)c1ccc(-c2cc3nccnc3c(N3CCC4(CCCNC4)C3)n2)cc1 (stereo not shown) [Compound 111] | 0.001 to 0.1 | 0.001 to 0.1
c1cnc2c(N3CCC4(CCCNC4)C3)nc(-c3ccc(N4CCCC4)cc3)cc2n1 (stereo not shown) [Compound 112] | 0.001 to 0.1 | 0.1 to 1
c1cnc2c(NC[C@@H]3CNCCO3)nc(-c3ccc(N4CCCC4)cc3)cc2n1 [Compound 114] | 0.001 to 0.1 | 0.001 to 0.1
Cc1cc(-c2cc3nccnc3c(NC[C@H]3CNCCO3)n2)ccc1N1CCOCC1 [Compound 115] | 0.1 to 1 | 0.001 to 0.1
c1cnc2c(NC[C@@H]3CCCNC3)nc(-c3ccc(N4CCCC4)cc3)cc2n1 [Compound 119] | 0.001 to 0.1 | 0.1 to 1
Cc1cc(-c2cc3nccnc3c(NC[C@@H]3CCCNC3)n2)ccc1N1CCOCC1 [Compound 120] | 0.001 to 0.1 | 0.1 to 1
Fc1cc(-c2cc3nccnc3c(NC[C@@H]3CCCNC3)n2)ccc1N1CCOCC1 [Compound 121] | 0.001 to 0.1 | 0.1 to 1

Compound | IC50 (Syk kinase) [µM] | IC50 (RBL-2H3 cells) [µM]
CN1CCN(c2ccc(-c3cc4nccnc4c(NC[C@@H]4CCCNC4)n3)cc2)CC1 [Compound 122] | 0.001 to 0.1 | 0.1 to 1
CN1CCN(c2ccc(-c3cc4nccnc4c(NC[C@@H]4CNCCO4)n3)cc2)CC1 [Compound 123] | 0.001 to 0.1 | 0.001 to 0.1
O=C1CCCN1c1ccc(-c2cc3nccnc3c(NC[C@@H]3CNCCO3)n2)cc1 [Compound 124] | 0.1 to 1 | 0.1 to 1
CN1CCN(c2ccc(-c3cc4nccnc4c(N4CC[C@@H](CO)C4)n3)cc2)CC1 [Compound 127] | 0.001 to 0.1 | 0.1 to 1
CN1CCN(c2ccc(-c3cc4nccnc4c(N4CCC(C(N)=O)C4)n3)cc2)CC1 (stereo not shown) [Compound 128] | 0.001 to 0.1 | 0.1 to 1
Fc1cc(-c2cc3nccnc3c(NC[C@H]3CCCNC3)n2)ccc1N1CCOCC1 [Compound 129] | 0.001 to 0.1 | 0.001 to 0.1
c1cnc2c(N3CCC4(CCCNC4)C3)nc(-c3ccc(N4CCOCC4)nc3)cc2n1 (stereo not shown) [Compound 130] | 0.001 to 0.1 | 0.001 to 0.1
Fc1cc(-c2cc3nccnc3c(NC[C@@H]3CNCCO3)n2)cc(F)c1N1CCOCC1 [Compound 135] | 0.1 to 1 | 0.1 to 1
COc1ccc(-c2cc3nccnc3c(NC[C@@H]3CNCCO3)n2)cc1F [Compound 136] | 0.001 to 0.1 | 0.001 to 0.1
FC(F)Oc1ccc(-c2cc3nccnc3c(NC[C@@H]3CNCCO3)n2)cc1 [Compound 138] | 0.1 to 1 | 0.1 to 1
FC(F)Oc1ccc(-c2cc3nccnc3c(NC[C@H]3CCCNC3)n2)cc1 [Compound 139] | 0.001 to 0.1 | 0.001 to 0.1
CN(C)c1ccc(-c2cc3nccnc3c(NC[C@@H]3CNCCO3)n2)cc1F [Compound 141] | 0.001 to 0.1 | 0.001 to 0.1
CN(C)c1ccc(-c2cc3nccnc3c(NC[C@H]3CCCNC3)n2)cc1F [Compound 142] | 0.001 to 0.1 | 0.001 to 0.1
CNc1ccc(-c2cc3nccnc3c(NC[C@@H]3CNCCO3)n2)cc1 [Compound 143] | 0.001 to 0.1 | 0.001 to 0.1
NC(=O)N[C@@H]1CCN(c2nc(-c3ccc(N4CCOCC4)cc3)cc3nccnc23)C1 [Compound 144] | 0.1 to 1 | 0.1 to 1
CCNC[C@@H]1CCN(c2nc(-c3ccc(N4CCOCC4)cc3)cc3nccnc23)C1 [Compound 148] | 0.1 to 1 | 0.1 to 1
CS(=O)(=O)NC[C@@H]1CCN(c2nc(-c3ccc(N4CCOCC4)cc3)cc3nccnc23)C1 [Compound 149, (R)—N-((1-(7-(4-morpholinophenyl)pyrido[4,3-b]pyrazin-5-yl)pyrrolidin-3-yl)methyl)methanesulfonamide] | 0.1 to 1 | 0.1 to 1
